In ChEMBL document CHEMBL1125842, “Synthesis and anticonvulsant activity of 2-iminohydantoins” (J Med Chem, 1991):
Activity calls are given as the source filed them. The rule behind the calls is not given here.

Key:
Mus musculus [1] = assay: Anticonvulsant activity was measured from scMET test by delivering the drug intraperitoneally after 0.5 hr; assay type: functional; conditions: ip
Mus musculus [2] = assay: Anticonvulsant activity was measured from mES test by delivering the drug intraperitoneally after 0.5 hr; NA-Not active; assay type: functional, organism-based
Mus musculus [3] = assay: Anticonvulsant activity was measured from mES test by delivering the drug intraperitoneally after 0.5 hr; assay type: functional; conditions: ip
Mus musculus [4] = species: Mus musculus
Mus musculus [5] = species: Mus musculus; remark: listed apart in the source
Description: ED50 was evaluated from scMET test in mice by delivering intraperitoneally and the value was determined at peak time effect or peak neurologic effect; NA-Not active

Mus musculus [6] = assay: ED50 was evaluated from MES test in mice by delivering intraperitoneally and the value was determined at peak time effect or peak neurologic effect.; assay type: functional; conditions: ip
[7] = Protective index was determined as ratio of TD50 to ED50(MES method); assay type: functional
[8] = Protective index was determined as ratio of TD50 to ED50(scMET method); assay type: functional
[9] = Neurotoxicity was determined from the rotarod ataxia test for the compound by the intraperitoneal administration.; assay type: toxicity, organism-based; conditions: mouse, in vivo, ip
Mus musculus [10] = assay: ED50 was evaluated from scMET test in mice by delivering intraperitoneally and the value was determined at peak time effect or peak neurologic effect.; assay type: functional; conditions: ip
Mus musculus [11] = species: Mus musculus; assay: animal or person; conditions: ip

| Structure (SMILES) | ED50 (Mus musculus [1]) | ED50 (Mus musculus [3]) | ED50 (Mus musculus [6]) | ED50 (Mus musculus [10]) | other results |
| --- | --- | --- | --- | --- | --- |
| CC(C)C[C@@H]1N=C(N)NC1=O | > 300 mg/kg |  |  |  |  |
| O=C1NC(=S)NC1(c1ccccc1)c1ccccc1 [THIOPHENYTOIN] | 1340 mg/kg |  |  |  | ED50 (Mus musculus [2]): inactive |
| O=C1NC(=O)C(c2ccccc2)(c2ccccc2)N1 [PHENYTOIN] |  | 2.3 mg/kg |  |  | ED50 (Mus musculus [4]): inactive; ED50 (Mus musculus [5]): inactive |
| CC(C)C[C@@H]1C(=O)N=C(N)N1C(=O)OCc1ccccc1 | 547 mg/kg |  |  |  |  |
| NC(=O)NC(=O)Cc1ccccc1 [PHENACEMIDE] |  |  | 87 mg/kg |  | PI [7]: 4.8; PI [8]: 3.6 |
| CC(C)C[C@H]1C(=O)N=C(N)N1C(=O)OCc1ccccc1 | 92.8 mg/kg | 44.5 mg/kg | 98.6 mg/kg | 141 mg/kg | TD50 [9]: 350 mg/kg; PI [7]: 3.5; PI [8]: 2.5 |
| NC1=NC(=O)[C@H](Cc2ccccc2)N1 | > 1000 mg/kg | 97.8 mg/kg |  |  |  |
| CCC1(C)CC(=O)NC1=O (stereo not given) [ETHOSUXIMIDE] |  |  | > 1000 mg/kg | 130 mg/kg | TD50 (Mus musculus [11]): 441 mg/kg |
| CCC1(c2ccccc2)C(=O)NC(=O)NC1=O [PHENOBARBITAL] |  |  | 21.8 mg/kg | 13.2 mg/kg | TD50 (Mus musculus [11]): 69 mg/kg |
| NC1=NC(=O)CN1C(=O)OCc1ccccc1 |  | 459 mg/kg |  |  |  |
| NC1=NC(=O)[C@H](Cc2ccccc2)N1C(=O)OCc1ccccc1 | > 1000 mg/kg | 213 mg/kg |  |  |  |
| CCC1(c2ccccc2)NC(=O)N(C)C1=O (stereo not given) [MEPHENYTOIN] |  |  | 61 mg/kg | 31 mg/kg |  |
